Source: paper PMC11480233, “Structural insights into the Caprin-2 HR1 domain in canonical Wnt signaling” (The Journal of Biological Chemistry, 2024)
Where a chain is given by its changes, count along the chain named. Names and notes keep the numbering of the source. Values belong to the molecule of their own block, whether it stands above or below them.

Assays:
[1] = molecular target: T1, hCap2_HR1 (HR1 domain of human Caprin-2) (Homo sapiens, UniProt Q6IMN6, R200E/R201E); experiment: biolayer interferometry (Octet Red96); format: binding; details: labelled compound; biotinylated PI4P immobilised on streptavidin sensors; 20 mM Tris pH 7.5, 150 mM NaCl, 0.2 mM DTT, 0.05% Tween-20, 0.2 mg/ml BSA
T1 construct: gene CAPRIN2; HR1 domain, aa S102-K351, E. coli BL21-CodonPlus-RIL, modified pET-28a with His tag and TEV site; His tag kept for lipid strip
T1 sequence (Q6IMN6 102-351 R200E/R201E): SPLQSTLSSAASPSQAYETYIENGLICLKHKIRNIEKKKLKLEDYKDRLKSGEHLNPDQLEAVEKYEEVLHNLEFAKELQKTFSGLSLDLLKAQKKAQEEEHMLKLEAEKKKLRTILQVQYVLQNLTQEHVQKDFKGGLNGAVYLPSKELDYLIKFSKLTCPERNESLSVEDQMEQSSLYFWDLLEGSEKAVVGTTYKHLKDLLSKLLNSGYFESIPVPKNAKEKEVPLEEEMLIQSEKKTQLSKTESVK

[2] = molecular target: T2, hCap2_HR1 (HR1 domain of human Caprin-2) (Homo sapiens, UniProt Q6IMN6); experiment: biolayer interferometry (Octet Red96); format: binding; details: labelled compound; biotinylated PI4P immobilised on streptavidin sensors; 20 mM Tris pH 7.5, 150 mM NaCl, 0.2 mM DTT, 0.05% Tween-20, 0.2 mg/ml BSA
T2 construct: gene CAPRIN2; HR1 domain, aa S102-K351, E. coli BL21-CodonPlus-RIL, modified pET-28a with His tag and TEV site; His tag kept for lipid strip
T2 sequence (Q6IMN6 102-351): T1 sequence (Q6IMN6 102-351 R200E/R201E) with E99R, E100R

[3] = molecular target: the molecule itself; experiment: SEC; Superdex 200 with a calibration curve; estimated MW 66.45 kDa against theoretical 29.2 kDa

Kd [1]: 152 µM
Kd [2]: 2 µM
Molecule: biotinylated PI4P

B1: HR1 domain of human Caprin-2 (aa S102-K351) (domain or fragment, UniProt Q6IMN6 102-351, looked up)
chain: T1 sequence (Q6IMN6 102-351 R200E/R201E) with E99R, E100R
notes: Caprin-2, human, HR1 domain construct, residues S102-K351, cloned from full-length human Caprin-2; Modified pET-28a vector with a TEV site in place of the thrombin site; A SeMet triple mutant I217M/L251M/L301M of the same limits was used for phasing; also called hCap2_HR1; Cap2_HR1
stoichiometry N [3]: 2
